Measurements as given in paper PMC9332833 (Cancers, 2022).

Tests used:
[1] = tested on: CD34+/CD38+ cells from CML patients; test: Annexin V-FITC/PI apoptosis in CD34+/CD38+ subpopulation; type: cell-based, human; settings: 2.5 or 5 µM, 24 h
Experimental: Pre-cultured cells were treated with BK124.1 or DMSO for 24 h. For purity analysis, cells were stained with anti-human CD34-APC antibody, anti-human CD38-PE (Biolegend, San Diego, CA, USA), and propidium iodide according to the manufacturers’ protocols. For apoptosis analysis, cells were additionally stained with Annexin V-FITC kit (BD, Franklin Lakes, NJ, USA) according to the manufacturer’s protocol. Appropriate isotype controls were included. Stained cells were immediately analyzed on a BD LSRFortessa flow cytometer with FlowJo software (BD, Franklin Lakes, NJ, USA), after exclusion of doublets. Purity was analyzed on live cells only, and apoptosis separately for each population of cells (CD34^+/CD38^+ or CD34^+/CD38^−).
[…] Next, we isolated CD34+ cells (EasySep™ Human CD34 Positive Selection Kit II, StemCell Technologies, Vancouver, Canada), counted them and assessed viability with Muse Cell Analyzer (Merck Millipore, Burlington, MA, USA). […] The purity of the live CD34+ fraction was assessed by flow cytometry with anti-human CD34-APC antibody, compared with an appropriate isotype control (Biolegend, San Diego, CA, USA), and propidium iodide (Sigma-Aldrich, St. Louis, MO, USA). […]
[…] In both cases stained cells were immediately analyzed on a BD LSRFortessa flow cytometer and analyzed with FlowJo software (BD, Franklin Lakes, NJ, USA). […]

[2] = Stability of BK124.1 concentrate for injection; type: physicochemical; settings: 1 mg BK124.1 in 50% Solutol HS 15/50% ethanol, 30-36 °C
Description: Additional file 2: Supplementary methods
The antibodies (Ab) used in the flow cytometry and immunoblotti ng experiments are listed according to the targeted protein and the vendor. Antibodies: BD Transduction Laboratories - p38 (ref. 612288), p-p38 (ref. 612289); Cell Signalling Technologies - c-Abl (ref. 2862), Akt (pan) (C67E7) (ref. 4691), STAT5 […]
(ref. 9102); Santa Cruz Biotechnology - Lamin B1 (A11) (ref. sc-377000), JNK, (ref. sc-7345), p-JNK (ref. sc-6254); Sigma - α-tubulin (ref. T-6074). Biolegend, San Diego, CA, USA - CD34 (CD34-APC), CD38 (anti- […]
BK124.1 preparation for injection
In the first step, 50 µL of Solutol HS 15 and 50 µL of anhydrous ethanol 99.8% were added to 1 mg of BK124.1, to obtain a solution of 50% Solutol HS 15/50% ethanol. This solution was shaken (1-2 h) at 30-40 °C until BK124.1 was completely dissolved. This solution was stable for 48 hours at temperatures between 30-36 °C. This concentrate is sticky, has poor filtration and portioning properties, and so cannot be administered intravenously or intraperitoneally without dilution. Therefore, in the second step, the prepared concentrate was diluted with aqua pro injectione to obtain a concentration of 10% Solutol HS 15/10% ethanol. […]

[3] = Solubility in selected solvents; type: physicochemical
Description: Supplementary Information
Table S1. Solubility of BK124.1 in selected solvents. In bold are marked solvents in which BK124.1 is soluble and stable, adequate for the administration in vivo.
Solvent Formulation Comments
Water 0.9% NaCl insoluble
10% ethanol in 0.9% NaCl insoluble
Cyclodextrin ɑ-cyclodextrin in water insoluble
β-cyclodextrin in water insoluble
γ-cyclodextrin in water insoluble […]
DMSO < 100% in water insoluble
Surfactant 20% Solutol HS 15 in 0.9% NaCl insoluble
20% Solutol HS 15 in PBS insoluble
20% Solutol HS 15, 10% ethanol in water 0.9% NaCl soluble/stable
10% Solutol HS 15, 10% ethanol in water 0.9% NaCl soluble/stable

HUVEC = tested on: HUVEC; set-up: method as in PMID 26902600, PMID 31487824; settings: cited from earlier work

SMILES: CCC12C(=O)C(CC)(C(c3ccccc3)=C1c1ccccc1)C1C(=O)N(CC(O)CNC(C)C)C(=O)C12 (centres unmarked) [BK124.1, 4-[2-hydroxy-3-(propan-2-ylamino)propyl]-1,7-diethyl-8,9-diphenyl-4-azatricyclo [5.2.1.02,6]dec-8-ene-3,5,10-trione]
- Apoptosis in CD34+/CD38+ cells compared with CD34+/CD38- cells [1]: even higher apoptosis
- Time the solution was stable [2]: 48 h
- Solubility ([3]; 0.9% NaCl): insoluble
- Solubility ([3]; 10% Solutol HS 15, 10% ethanol in water 0.9% NaCl): soluble/stable
- Solubility ([3]; 10% ethanol in 0.9% NaCl): insoluble
- Solubility ([3]; 20% Solutol HS 15, 10% ethanol in water 0.9% NaCl): soluble/stable
- Solubility ([3]; 20% Solutol HS 15 in 0.9% NaCl): insoluble
- Solubility ([3]; 20% Solutol HS 15 in PBS): insoluble
- Solubility ([3]; DMSO 100%): soluble/stable
- Solubility ([3]; DMSO < 100% in water): insoluble
- Solubility ([3]; ɑ-cyclodextrin in water): insoluble
- Solubility ([3]; β-cyclodextrin in water): insoluble
- Solubility ([3]; γ-cyclodextrin in water): insoluble
- Toxicity to normal cells (HUVEC): non-toxic
